{"source": "patent EP0571390B1", "about": "“THE DELAY, PREVENTION AND/OR REVERSAL OF CELL SENESCENCE” (priority 1990, dated 1992)", "key": {"[1]": {"system": "RR cells (human foreskin fibroblasts)", "experiment": "Growth and lifespan of RR cells passaged in medium with carnosine", "assay_type": "cell-based", "conditions": "for fibroblast morphology: after many population doublings; for time still growing: continuous", "procedure": "(§1) Cells were grown in Dulbecco's modification of Eagles' Minimal Essential Medium, with 10% fetal calf serum. When cells became confluent and ceased division, they were harvested with trypsin - versene, and dispersed to form a suspension of single cells which was counted with a Coulter Counter. Depending on the cell yield the culture was split in a ratio of 1:2, 1:4, or 1:8. These split ratios correspond approximately to one, two or three cell population doublings when the new cultures become confluent. The exact number of population doublings is calculated from the cell yield at each sub-culture.\nInitially, human foreskin fibroblasts were obtained from Dr Roger Reddel (Children's Medical Research Foundation) at passage 5, flasks were set up with differing concentrations of carnosine (10mM, 20mM, 30mM and 50mM) together with control cultures. Each of the cultures were passaged in the same medium."}, "MRC-5 cells [2]": {"system": "MRC-5 cells", "experiment": "Longevity experiment, MRC-5 cells grown continuously in medium supplemented with carnosine", "assay_type": "cell-based, human", "conditions": "for longevity: continuous, controls ceased growth at 57 and 61 PDs", "procedure": "as §1\nMRC-5 is a very well characterised fibroblast strain derived from foetal lung tissue. Early passage cultures were obtained from the National Institute for Biological Standards and Control, South Mimms, Herts, U.K. Longevity experiments were set up using normal medium and medium supplemented with 20 and 30mM carnosine (medium was the same as for RR cells above). […] The control cells became senescent at the expected time, namely after about 50 - 55 PDs, and they ceased growth at 57 and 61 PDs. […] It should be noted that the PD level is a logarithmic measure of growth, so an increase of 10 PDs represents an increase in cell mass of 2^10, or x 1,000."}, "MRC-5 cells [3]": {"system": "MRC-5 cells", "experiment": "Transfer of senescent MRC-5 cells from normal medium to carnosine medium at PD level 55", "assay_type": "cell-based, human", "procedure": "as §1\nRemarkably, these cells are continuing to grow after 400 days (Figure 8), whereas cells grown continuously in carnosine died out after 139 days. Thus it appears that transfer of senescent cells to carnosine can reverse the senescent phenotype and allow extended growth of cells with a near normal morphology (Figures 10, 11 and 12)."}, "[4]": {"conditions": "transferred at PD level 55 to 20mM carnosine"}, "[5]": {"conditions": "transferred at PD level 55 to 30mM carnosine"}}, "data": [{"smiles": "NCCC(=O)N[C@@H](Cc1c[nH]cn1)C(=O)O", "note": "[carnosine, β-alanyl-L-histidine]", "values": [{"measurement": "growth rate", "setting": "[1]; 10mM carnosine added to standard medium, versus control cultures", "value": "grew as rapidly as control cultures"}, {"measurement": "growth rate", "setting": "[1]; 20mM carnosine added to standard medium, versus control cultures", "value": "grew as rapidly as control cultures"}, {"measurement": "growth rate", "setting": "[1]; 30mM carnosine", "value": "some reduction in growth rate"}, {"measurement": "fibroblast morphology", "setting": "[1]; 30mM carnosine", "value": "retained their characteristic fibroblast morphology"}, {"measurement": "time still growing", "setting": "[1]; 30mM carnosine", "value": "> 500", "unit": "days"}, {"measurement": "growth rate", "setting": "[1]; 50mM carnosine", "value": "a great reduction"}, {"measurement": "fibroblast morphology", "setting": "[1]; 50mM carnosine", "value": "retained their characteristic fibroblast morphology"}, {"measurement": "time still growing", "setting": "[1]; 50mM carnosine", "value": "> 500", "unit": "days"}, {"measurement": "PD level of cells growing continuously", "setting": "MRC-5 cells [2]; 20mM carnosine (Figure 7)", "value": 67, "unit": "PD"}, {"measurement": "growth rate in the initial stage", "setting": "MRC-5 cells [2]; 20mM carnosine versus normal medium", "value": "little difference in growth rate"}, {"measurement": "longevity", "setting": "MRC-5 cells [2]; 20mM carnosine", "value": "very significantly increased longevity"}, {"measurement": "growth rate in the initial stage", "setting": "MRC-5 cells [2]; 30mM carnosine versus normal medium", "value": "little difference in growth rate"}, {"measurement": "longevity", "setting": "MRC-5 cells [2]; 30mM carnosine", "value": "very significantly increased longevity"}, {"measurement": "number of cells per flask", "setting": "MRC-5 cells [2]; as the end of the culture lifespan approaches", "value": "significantly increases the number of cells per flask"}, {"measurement": "morphological features of senescence", "setting": "MRC-5 cells [2]; carnosine medium, Figure 7 compared with Figure 6", "value": "delayed the normal morphological features of senescence"}, {"measurement": "time until cells died out", "setting": "MRC-5 cells [2]; cells grown continuously in carnosine", "value": 139, "unit": "days"}, {"measurement": "PDs reached after transfer", "setting": "MRC-5 cells [3]; 20mM carnosine, 146 days after transfer (Figure 11)", "value": 64, "unit": "PDs"}, {"measurement": "PDs reached after transfer", "setting": "MRC-5 cells [3]; 30mM carnosine, 146 days after transfer (Figure 12)", "value": 63, "unit": "PDs"}, {"measurement": "effect in increasing cell yield", "setting": "MRC-5 cells [3]; cells transferred from normal medium to 30mM carnosine medium (Figure 9)", "value": "particularly striking"}, {"measurement": "phenotype after transfer", "setting": "MRC-5 cells [3]; [4]", "value": "continued to grow slowly, but with a rejuvenated phenotype"}, {"measurement": "time continuing to grow", "setting": "MRC-5 cells [3]; [4]", "value": "> 400", "unit": "days"}, {"measurement": "phenotype after transfer", "setting": "MRC-5 cells [3]; [5]", "value": "continued to grow slowly, but with a rejuvenated phenotype"}, {"measurement": "time continuing to grow", "setting": "MRC-5 cells [3]; [5]", "value": "> 400", "unit": "days"}]}]}
